Results: PubChem BioAssay (NCI)
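Compound exposure: 48 hours, 5 concentrations, 96-well plates. TGI denotes the concentration required for complete inhibition of growth.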

Key:
Test in all cases: NCI tumour cell line growth inhibition, 48 h
[1] = system: HOP-92 NSCLC
[2] = system: RXF 393 renal
[3] = system: TK-10 renal
[4] = system: UACC-257 melanoma
[5] = system: HCC-2998 colon
[6] = system: SNB-75 CNS
[7] = system: A549 NSCLC
[8] = system: SK-MEL-5 melanoma
[9] = system: M14 melanoma
[10] = system: HT29 colon
[11] = system: U251 CNS
[12] = system: 786-0 renal
[13] = system: IGROV1 ovarian
[14] = system: SF-268 CNS
[15] = system: OVCAR-8 ovarian
[16] = system: SF-539 CNS
[17] = system: EKVX NSCLC
[18] = system: HCT-116 colon
[19] = system: NCI/ADR-RES ovarian

Compound | TGI [1] [µM] | TGI [2] [µM] | TGI [3] [µM] | TGI [4] [µM] | TGI [5] [µM] | TGI [6] [µM] | TGI [7] [µM] | TGI [8] [µM] | TGI [9] [µM] | TGI [10] [µM] | TGI [11] [µM] | TGI [12] [µM] | TGI [13] [µM] | TGI [14] [µM] | TGI [15] [µM] | TGI [16] [µM] | TGI [17] [µM] | TGI [18] [µM] | TGI [19] [µM]
C#CCNC(=O)NCCCC(NC(C)=O)C(=O)NCc1ccccc1 (centres undefined) | > 100 | > 100 | > 100 | > 100 | > 100 | > 100 | > 100 | > 100 | > 100 | > 100 | > 100 | > 100 | > 100 | > 100 | > 100 | > 100 | > 100 | > 100 | 
CN(C)CCC(O)(c1ccccc1)C(O)(CCN(C)C)c1ccccc1 (centres undefined) |  |  | > 100 | 56.7 | > 100 | > 100 | > 100 | > 100 | 32.8 | > 100 | > 100 | > 100 | > 100 | > 100 | > 100 |  | > 100 |  | 
Nc1nc(NCCO)c(N=O)c(=O)[nH]1 | > 100 | > 100 | > 100 | > 100 |  | > 100 | > 100 | > 100 | > 100 | > 100 | > 100 | > 100 | > 100 | > 100 | > 100 | > 100 | > 100 | > 100 | 
COC(=O)C(C)(C)OCc1ccc(C2NC(=O)N(c3cccc(Cl)c3)C(=O)N2c2cccc(Cl)c2)cc1 (centres undefined) | 69.7 | > 100 |  | > 100 | > 100 | 6.95 | > 100 | 52.8 | > 100 | > 100 | > 100 | > 100 | > 100 | > 100 | > 100 | > 100 | 78.8 | > 100 | > 100
CCOc1ccc(NC(=O)C2=C(C)NC(C)=C(C(=O)Nc3ccc(OCC)cc3)C2c2ccc(O)c(OC)c2)cc1 | 53.9 | > 100 | > 100 | > 100 | 76.1 | 59.2 | > 100 | > 100 | > 100 | > 100 | > 100 | > 100 | > 100 | > 100 | > 100 | 83.6 | > 100 |  | 
N#CCCN(c1ccc(/C=C2\N=C(Cc3ccccc3)OC2=O)cc1)S(=O)(=O)c1ccccc1 |  | > 100 | > 100 | > 100 | > 100 | > 100 | > 100 | > 100 | > 100 | > 100 | > 100 | > 100 | > 100 | > 100 | > 100 | > 100 | > 100 | > 100 | 
O=C(CC(=O)Nc1cccc(Cl)c1)NNCC(=O)Nc1nnc(-c2ccccc2)s1 |  |  | > 100 | > 100 | > 100 | 33.8 | > 100 | > 100 | > 100 | > 100 | > 100 | 84.3 | > 100 | > 100 | > 100 | > 100 | > 100 | > 100 | 
NC(=O)c1cccc(C2OC(COP(=O)(O)O)C(O)C2O)c1 (centres undefined) |  | > 50 | > 50 | > 50 | > 50 | > 50 | > 50 | > 50 | > 50 | > 50 | > 50 | > 50 | > 50 | > 50 | > 50 | > 50 | > 50 | > 50 | 
N#CC(C(=O)/C(=N/NC(=O)c1ccccc1O)C(C#N)c1ccccc1)c1ccccc1 (centres undefined) | > 100 | > 100 | > 100 | > 100 | > 100 | > 100 | > 100 |  | > 100 | > 100 | > 100 | > 100 | > 100 | > 100 | > 100 | > 100 | > 100 | > 100 | 
COc1ccc(/C=C/c2sc3ccccc3[n+]2CCCCI)cc1OC | > 10 | > 10 | > 10 | > 10 | > 10 | > 10 | > 10 | > 10 | > 10 | > 10 | > 10 | > 10 | > 10 | > 10 | > 10 | > 10 | > 10 | > 10 | > 10
O=C(Nc1nc(C23CC4CC(CC(C4)C2)C3)cs1)c1c(O)c2ccccc2[nH]c1=O | > 100 | > 100 | > 100 | > 100 | > 100 |  | > 100 | > 100 |  | > 100 | > 100 | > 100 | > 100 | > 100 | > 100 | > 100 | > 100 | > 100 | > 100
Nc1ccc2nc(NCc3ccc(F)cc3)cnc2c1 |  | > 100 | > 100 |  | > 100 | > 100 | > 100 | > 100 | > 100 | > 100 | > 100 | > 100 | > 100 | > 100 | > 100 | > 100 | > 100 | > 100 | 
Cn1c2c(c3ccccc31)CCN(CCN1CCN(c3ccccc3)CC1)C2=O | 96.5 | 83.4 | > 100 |  |  |  | > 100 | > 100 | > 100 | > 100 | > 100 | > 100 | > 100 | > 100 | > 100 | > 100 | > 100 | > 100 | 
CC(=O)O[C@]12CCCCC1C1(O)C(O)CCCCC12 (some centres undefined) |  | > 100 | > 100 | > 100 |  | > 100 | > 100 | > 100 | > 100 | > 100 | > 100 | > 100 |  | > 100 | > 100 |  | > 100 | > 100 | 
NC(=O)C#CC#CC#CCO | 3.83 | 3.66 | 3.01 | 5.87 | 3.1 |  | 16.5 | 3.78 | 3.63 | 4.04 | 3.72 | 2.93 | 7.4 |  | 3.42 |  |  | 2.59 | 
O=C1[C@@H]2C(c3ccc(Cl)cc3Cl)=NO[C@@H]2C(=O)N1c1ccc(Cc2ccc(N3C(=O)[C@H]4C(c5ccc(Cl)cc5Cl)=NO[C@H]4C3=O)cc2)cc1 | 41.4 | 68.8 | > 100 | > 100 | > 100 | > 100 | > 100 | > 100 | > 100 | > 100 |  | > 100 | > 100 | > 100 | > 100 | > 100 | > 100 |  | 
Cc1ccc(N=NC2S/C(=C(\C#N)c3nc4ccccc4[nH]3)N(c3ccccc3)C2=O)cc1 (centres undefined) | > 100 | 81.5 | > 100 | > 100 |  | 82.5 | > 100 | > 100 | > 100 | > 100 | > 100 | 71.9 | > 100 | > 100 | > 100 | > 100 | > 100 | > 100 | 
CCCCCCCc1cc(OC(=O)c2c(C)cc(OC)cc2O)cc(O)c1C(=O)O | 41.8 | 52.2 | 90.2 | 87.7 | 35.6 | 36.1 | 83.9 | 40.7 | 36.6 | > 100 | 32.1 | 36.8 | 55.3 | 45.9 | 77.9 | 32.6 | 77 |  | 
CCCOC(=O)C1CCC(=O)N1C(=O)C(C)Cl (centres undefined) | > 100 |  | > 100 | > 100 | > 100 | > 100 | > 100 | > 100 | > 100 | > 100 | > 100 | > 100 | > 100 | > 100 | > 100 |  | > 100 | > 100 | 
COc1ccccc1/C=C(\C#N)C(=O)c1ccccc1 | > 100 |  |  | > 100 | > 100 |  | > 100 | > 100 | > 100 | > 100 | > 100 | > 100 | > 100 | > 100 | > 100 | > 100 | > 100 | > 100 | 
COc1ccc(NC(=O)CC(=O)N2N=C(N(CCC#N)c3ccccc3Cl)CC2c2ccccc2)cc1 (centres undefined) | > 100 | > 100 | > 100 | > 100 | > 100 | > 100 | > 100 | > 100 | > 100 | > 100 | > 100 | > 100 | > 100 | > 100 | > 100 | > 100 | > 100 | > 100 | 
C=[N+](CNC(=O)CNC(=O)C(Cc1ccc([N+](=O)[O-])cc1)NC(=O)OC(C)(C)C)C(=O)CNC(=O)C(Cc1ccc([N+](=O)[O-])cc1)NC(=O)OC(C)(C)C (centres undefined) | > 100 | > 100 | > 100 |  | > 100 | > 100 | > 100 | > 100 | > 100 | > 100 | > 100 | > 100 | > 100 | 61.8 | > 100 | 57.9 | > 100 | > 100 | > 100
CCOc1ccc(NC(=O)C(=O)NO)cc1 | > 100 | > 100 | > 100 | > 100 | > 100 | > 100 | > 100 | > 100 | > 100 | > 100 | > 100 | > 100 | > 100 | > 100 | > 100 | > 100 | > 100 | > 100 | 
O=S(=O)(N/N=C1\CC2CCC1C2)c1ccccc1 (centres undefined) | > 100 |  | > 100 | > 100 |  | > 100 | > 100 | > 100 | > 100 | > 100 | > 100 | > 100 | > 100 | > 100 | > 100 |  | > 100 | > 100 | > 100
Cc1c(C#N)c2ccccc2c2nc3ccccc3n12 | > 100 | > 100 | > 100 | > 100 | > 100 | > 100 | > 100 | 36.5 |  |  | > 100 | > 100 | > 100 |  | > 100 | > 100 | > 100 | > 100 | > 100
CC1OC(n2ccc(=O)[nH]c2=O)C=C(OC(=O)c2ccccc2)C1=O (centres undefined) | 99.6 | > 100 | > 100 | > 100 |  | 63.1 | > 100 | > 100 | > 100 | > 100 | 81.3 | > 100 | > 100 |  | > 100 | > 100 | > 100 |  | 
Cc1ccccc1C1OC(=O)c2ccccc21 (centres undefined) |  | > 100 | > 100 |  | > 100 | > 100 | > 100 | > 100 | > 100 | > 100 | > 100 | > 100 | > 100 | > 100 | > 100 | > 100 | > 100 | > 100 | 
